From patent publication US20090048185A1, “Therapeutic Drug for Suppressing Functions of NKT Cells Containing Glycolipid Derivative as Active Ingredient” (priority 2005, published 2009)

Tests used:
[1] = tested on: collagen induced arthritis (CIA); details: literature (Chiba et al., Arthritis Rheum. 2004); cited from earlier work
[2] = tested on: experimental autoimmune encephalomyelitis (EAE); details: literature (Miyamoto et al., Nature 2001); cited from earlier work
NKT cells = assay: Effect of the compound on NKT cells (liver mononuclear cells incubated with compound); assay type: cell-based, C57BL/6J mice; details: 48 hours incubation, FIG. 4
Experimental: Mononuclear cells were isolated from the liver of C57BL/6J mice (8 weeks old, female) and are incubated with the compound for 48 hours.

Compound	suppression of diseases in CIA [1]	suppression of diseases in EAE [2]	IFN-γ production (ELISA, supernatant) (NKT cells)	IL-4 production (ELISA, supernatant) (NKT cells)	cell proliferation (uptake of tritium thymidine) (NKT cells)
CCCCCCCCCCCCCCCCCCCCCCCC(=O)N[C@@H](COC1OC(CO)C(O)C(O)C1O)[C@H](O)[C@H](O)CCCCC (some centres unmarked) [OCH]	high effectiveness	high effectiveness	–	–	–
CCCCCCCCCCCCCCCCCCCCCCCCCC(=O)N[C@@H](COC1OC(CO)C(O)C(O)C1O)[C@H](O)[C@H](O)CCCCCCCCCCCCCC (stereo partly drawn) [α-GC, α-galactosyl ceramide]	–	–	induced	induced	induced
